Measured values taken from patent US20260325485A1, “COMPOSITIONS AND METHODS FOR TREATING PANCREATITIS” (The United States Government as represented by the …, priority 2022, published 2026).
“Also recorded” adds a separate entry of the source. Residues, ends and D or L forms follow the SMILES beside them. No end group written: not given here.

Tests used:
human acinar cells = assay: Total cholesterol content of human acinar cells (ex vivo pancreatitis models); type: cell-based
Procedure: (§1) FIGS. 8A-8M show derangement of cholesterol metabolism in experimental pancreatitis. Characteristics of cholesterol metabolism were measured, as detailed in FIGS. 4A-4R, in pancreas of WT mice subjected to pancreatitis induced with cerulein (CER-AP), L-arginine (Arg-AP), or CDE diet (CDE-AP) (A, B, and E-G); ex vivo pancreatitis induced in WT mouse (C and I-M) or human acinar cells (D) with 100 nM CCK (CCK-AP) or 1 mM carbachol; and isolated pancreatic mitochondria (H). (B) Cholesterol ester (CE) heatmap; each column represents an individual mouse. (F) IB analysis of the indicated proteins. (G) LAL activity was measured by a fluorogenic assay (n=6 mice per condition). (H) Cholesterol content was measured by enzymatic assay. (I-M) Filipin colocalization with indicated proteins was quantified as detailed in FIGS. 2A-2L. Each symbol in A, C-E, and H represents an individual mouse, or cell or mitochondria preparation (n=3-15 per condition). Each symbol in J, K, and M corresponds to 20-30 cells in a different field (n=10-20 fields from 3 cell preparations per condition). Values are mean±SEM. *P<0.05, **P<0.01, ***P<0.001 vs. the same parameter in control/untreated pancreas, acinar cells or isolated mitochondria. Significance was determined by 2-tailed Student's t test (B, E, H, J, K, and M) or 1-way ANOVA followed by Tukey's multiple comparison test (A, C, and D). Scale bars: 10 μm.
(§2) Parameters of cholesterol metabolism were measured in (A, B, E, F) pancreas of mice subjected to pancreatitis induced with cerulean (CER-AP), L-arginine (Arg-AP), or combination of EtOH+palmitoleic acid (EtOH+POA); and (C) ex-vivo models on mouse and human acinar cells treated for 1 h with 100 nM CCK, […] or 500 μM TLCS. In (A), each column in CE heatmap represents an individual mouse. (B, C) Total cholesterol content was measured with cholesterol assay kit (Abcam, ab65390). […] Each symbol corresponds to 20-30 cells in each of 8 high-expression (qPCR) of proteins regulating cholesterol synthesis (4 mice/group). (B-D) Each symbol represents an individual animal or cell preparation. (A-D, F) Values are mean±SE (*p<0.05, **p<0.01, ***p<0.001 vs saline or control). Signficance was determined by 2-tailed student's t test.
(§3) Ex vivo pancreatitis models were performed on mouse and human acinar cells, and human pancreas slices by incubation with supramaximal CCK (100 nM) or carbachol (1 mM), as described previously (80, 81).
Human pancreas slices were obtained as in (12), from portions of live normal human pancreata from pre-terminal donors that were not used for transplantation and diverted to research (provided by Trillium Gift of Life Network, Toronto, Ontario, year 2020) or from normal portions of pancreatic cancer operations. Pancreas was cut into ~3×3×3 mm pieces and embedded with 37° C. low melting 3.8% agarose gel in extracellular solution containing (mM): 125 NaCl, 2.5 KCl, 1 MgCl2, 2 CaCl2, 1.25 NaH2PO4, 26 NaHCO3, 2 sodium pyruvate, 0.25 ascorbic acid, 3 myo-inositol, 6 lactic acid, and 7 glucose, and placed on ice to solidify the gel. The gelled tissue blocks were sliced with Vibratome into 120 μm-thick slices; slices were washed with the same extracellular solution, placed in 199 medium containing 0.1 mg/mL soybean trypsin inhibitor, and treated with CCK-8 (CCK) or carbachol for ex-vivo pancreatitis.
(§4) Total cholesterol content was measured with Cholesterol Assay kit per manufacturer's instructions. […]

free cholesterol = assay: Filipin colocalization with organelle markers in ex vivo CCK-AP; type: cell-based, mouse; conditions: 100 nM CCK
Procedure: as §1, with “Each symbol in A, C-E, and H represents an individual mouse, or cell or mitochondria preparation (n=3-15 per condition). Each symbol in J, K, and M corresponds to 20-30 cells in a different field (n=10-20 fields from 3 cell preparations per condition). Values are mean±SEM. *P<0.05, **P<0.01, ***P<0.001 vs. the same parameter in control/untreated pancreas, acinar cells or isolated mitochondria.” left out, “Scale bars: 10 μm.” left out
All fluorescence images were acquired with a Zeiss LSM710 confocal microscope using x63 objective and preset within-experiment image acquisition settings. Quantitative fluorescence analysis was performed with Volocity software (PerkinElmer). Overlap between 2 fluorescent labels was measured using Manders-Costes coefficient. […]

mouse acinar cells = assay: Total cholesterol content of mouse acinar cells (ex vivo pancreatitis models or cholesterol chelator); type: cell-based; parameters: total cholesterol in acinar cells, physiologic doses: dose or concentration left out as unconfirmed
Procedure: as §1, §2, §3
(§5) Total cholesterol content was measured with Cholesterol Assay kit per manufacturer's instructions. Samples of mouse pancreas and liver, cell pellet homogenates, subcellular fractions, isolated mitochondria, and serum were diluted in the reaction buffer containing cholesterol probe and incubated at 37° C. for 1 h in the dark. To measure total cholesterol, the samples were subjected to digestion with cholesterol esterase. To measure non-esterified cholesterol, the esterase was omitted from the assay.
Fluorescence intensity (for cholesterol) and absorbance (for TAG) were measured in a Tecan microplate reader. Each measurement was in duplicate, and the values were normalized per mg total protein in the sample.

[1] = test system: lysosomal acid lipase (LAL); assay: Lysosomal acid lipase (LAL) activity in cerulein pancreatitis; type: in vivo, mouse; conditions: WT mice with CER-AP
Procedure: as §1, with “Each symbol in A, C-E, and H represents an individual mouse, or cell or mitochondria preparation (n=3-15 per condition). Each symbol in J, K, and M corresponds to 20-30 cells in a different field (n=10-20 fields from 3 cell preparations per condition). Values are mean±SEM. *P<0.05, **P<0.01, ***P<0.001 vs. the same parameter in control/untreated pancreas, acinar cells or isolated mitochondria.” left out, “Scale bars: 10 μm.” left out
Activities of cathepsin (Cat) B and L, caspase-3, trypsin, and lysosomal acid lipase (LAL) were measured in pancreatic tissue or cell homogenates and subcellular fractions with fluorogenic assays using substrates specific for CatB (Z-Arg-Arg-AMC), CatL (Z-Phe-Arg-AMC), caspase-3-like ([…]), trypsin (Boc-Gln-Ala-Arg-AMC), as previously described (1-4, 6, 7); and for LAL (4-methylumbelliferyl oleate), as in (17). […]

pancreatic mitochondria = assay: Cholesterol content of isolated pancreatic mitochondria in cerulein pancreatitis; type: in vivo, mouse; conditions: WT mice with CER-AP
Procedure: as §1, with “Each symbol in A, C-E, and H represents an individual mouse, or cell or mitochondria preparation (n=3-15 per condition). Each symbol in J, K, and M corresponds to 20-30 cells in a different field (n=10-20 fields from 3 cell preparations per condition). Values are mean±SEM. *P<0.05, **P<0.01, ***P<0.001 vs. the same parameter in control/untreated pancreas, acinar cells or isolated mitochondria.” left out, “Scale bars: 10 μm.” left out
Mitochondria were isolated from mouse pancreas and liver in a Ca2+-free medium in the presence of 1 mM EGTA, as in (3-5,13). The value of respiratory control ratio in these preparations, measured in the presence of succinate (quality control parameter), was greater than 3.0.
as §4

[2] = Serum cholesterol in cerulein pancreatitis; type: in vivo, mouse; conditions: CER-AP
Procedure: (§6) Cerulein-induced (CER-AP) and L-arginine induced (Arg-AP) acute pancreatitis models were performed in 12-week-old C57BL/6 mice that received 7 hourly i.p. injections of 50 μg/kg cerulein or 3 hourly i.p. injections of 3.3 g/kg Arg; controls received physiologic saline injections. Mice were euthanized for analyses 7 hours after the first cerulein or 24 hours after the first Arg injection. Choline deficient, ethionine-supplemented (CDE) pancreatitis was induced in young (~5-weeks old) female mice fed either CDE or control diet. Mice were euthanized 72 hours after the diet initiation. These models have been described in detail (1-7).
as §5

pancreas [3] = assay: Pancreatic total cholesterol and lipids in acute pancreatitis models in WT mice; type: in vivo, mouse
Procedure: as §1
Parameters of cholesterol metabolism were measured in (A, B, E, F) pancreas of mice subjected to pancreatitis induced with cerulean (CER-AP), L-arginine (Arg-AP), or combination of EtOH+palmitoleic acid (EtOH+POA); and (C) ex-vivo models on mouse and human acinar cells treated for 1 h with 100 nM CCK, […] or 500 μM TLCS. […] (B, C) Total cholesterol content was measured with cholesterol assay kit (Abcam, ab65390). […] Signficance was determined by 2-tailed student's t test. […]
as §4
Triglycerides (TAG) content was measured using Triglyceride Assay kit. […]

pancreas [4] = assay: Pancreatic mRNA expression and protein levels (qPCR, IB) in cerulein pancreatitis; type: in vivo, mouse
Procedure: as §1
FIGS. 9A-9E show cerulein pancreatitis decreases pancreatic levels of GNPTAB and mediators of cholesterol trafficking through LE/Ly. (A, D, and E) IB analysis of the indicated proteins in pancreas of WT mice subjected to CER-AP and in Gnptab^−/− mice. NS, nonspecific band. (B and C) Cholesterol content was measured in pancreas of (B) WT mice that received daily i.p. injections of the NPC1 inhibitor U18666A (10 mg/kg) or vehicle for 15 days and (C) Lamp2^−/− mice. Each symbol in B, C, and E represents an individual mouse. Values are mean±SEM from 3 to 5 mice per condition. ***P<0.001 vs. the same parameter in WT control/untreated or saline-treated mice. Significance was determined by 2-tailed Student's t test (B and C) or 1-way ANOVA followed by Tukey's multiple comparison test (E).
as §6
Immunoblots were developed using enhanced chemiluminescence detection kit (Pierce), and band intensities were quantified by densitometry using FluorChem HD2 imaging system (Alpha Innotech/ProteinSimple).
qPCR. Total RNA was isolated from tissue or cells using QIAGEN RNeasy Plus kit according to the manufacturer's instructions, quantified in NanoDrop, and converted to cDNA with high-capacity cDNA reverse transcription kit. KAPA SYBR FAST qPCR Master Mix kit and a LightCycler 480 were used for quantitative PCR. Fold change related to the control group was calculated using the 2ΔΔCt method with Rplp0/36B4 as the reference gene. Primers are available upon request.

[5] = ex-vivo pancreatitis, 1 h, 100 nM CCK, 1 mM carbachol or 500 μM TLCS
[6] = supramaximal (100 nM) CCK-8 or carbachol, ex vivo AP

| Molecule | cholesterol overload, human acinar cells (human acinar cells; [5]) | cholesterol content, human acinar cells, supramaximal stimulation (human acinar cells; [6]) | free cholesterol in Rab7-positive LE/Ly (free cholesterol) | plasma membrane free cholesterol (filipin colocalization with cadherin) (free cholesterol) | cholesterol overload, mouse acinar cells (mouse acinar cells; [5]) | total cholesterol in acinar cells, physiologic doses (mouse acinar cells; physiologic doses of CCK or carbachol) | cholesterol content, mouse acinar cells, supramaximal stimulation (mouse acinar cells; [6]) | LAL activity [1] | mitochondrial cholesterol (pancreatic mitochondria) | serum cholesterol levels [2] | pancreatic total cholesterol, AP models (pancreas [3]; Arg-AP, CER-AP or CDE-AP) | pancreatic triglycerides in CER-AP (pancreas [3]; CER-AP) | decrease in pancreatic GNPTAB α-subunit protein level (pancreas [4]; CER-AP) | pancreatic LAMP2 levels (pancreas [4]; CER-AP) | LDLR protein level (pancreas [4]; WT mice with CER-AP) | SREBP2 protein level (pancreas [4]; WT mice with CER-AP) | pancreatic NPC1 (pancreas [4]; WT mice with CER-AP) | pancreatic mRNA expression for enzymes mediating cholesterol synthesis (pancreas [4]; WT mice with CER-AP) | NPC2 levels (pancreas [4]; WT mice with CER-AP, listed as CER) |
| --- | --- | --- | --- | --- | --- | --- | --- | --- | --- | --- | --- | --- | --- | --- | --- | --- | --- | --- | --- |
| CCK: hormone cholecystokinin-8 (CCK) (DYMGWMDF; ends and bridges not checked; UniProt P06307 96-103, looked up) | prominent | increased | accumulation | markedly decreased | prominent | did not alter | increased | – | – | – | – | – | – | – | – | – | – | – | – |
| CSCC[C@H](NC(=O)[C@H](Cc1c[nH]c2ccccc12)NC(=O)CNC(=O)[C@@H](NC(=O)[C@H](Cc1ccc(OS(=O)(=O)O)cc1)NC(=O)[C@H](CC(=O)O)NC(=O)[C@H](CCC(N)=O)NC(=O)[C@@H]1CCC(=O)N1)[C@@H](C)O)C(=O)N[C@@H](CC(=O)O)C(=O)N[C@@H](Cc1ccccc1)C(N)=O [cerulein] (HELM PEPTIDE1{[Glp].Q.D.[O=C([C@H](Cc1ccc(OS(=O)(=O)O)cc1)N[*:1])[*:2]].T.G.W.M.D.F.[am]}$$$$V2.0) | – | – | – | – | – | – | – | increased | elevated | did not change | increases | unchanged | approximately 5 fold | greatly decrease | increased | increased | greatly decreased | upregulation | no change; also recorded: not reduced |
